In PubChem BioAssay AID1745844 (Carcinogenic Potency Database (CPDB), 2022):

Test system: rodent lifetime carcinogenesis bioassay, tumor incidence TD50
Experiment: carcinogenic potency in animals, long-term in vivo studies, CPDB compilation (AID 1745844)
Conditions: inhaled

Q: Which results are given for `C=CCl`?
A: TD50 (hamster, strain Syrian Golden, females, site: all sites, lesion: hemangiosarcoma, dosed 26 weeks, study length 104 weeks): 78.6 mg/kg/day; TD50 (hamster, strain Syrian Golden, females, site: all sites, lesion: hemangiosarcoma, dosed 52 weeks, study length 104 weeks): 314 mg/kg/day; TD50 (hamster, strain Syrian Golden, females, site: all sites, lesion: hemangiosarcoma, dosed 78 weeks, study length 104 weeks): 1920 mg/kg/day; TD50 (hamster, strain Syrian Golden, females, site: mammary gland, lesion: carcinoma, dosed 26 weeks, study length 104 weeks): 32.3 mg/kg/day; TD50 (hamster, strain Syrian Golden, females, site: mammary gland, lesion: carcinoma, dosed 52 weeks, study length 104 weeks): 27.7 mg/kg/day; TD50 (hamster, strain Syrian Golden, females, site: mammary gland, lesion: carcinoma, dosed 78 weeks, study length 104 weeks): 61 mg/kg/day; TD50 (hamster, strain Syrian Golden, females, site: skin, lesion: carcinoma, dosed 52 weeks, study length 104 weeks): 121 mg/kg/day; TD50 (hamster, strain Syrian Golden, females, site: stomach, lesion: adenoma, dosed 26 weeks, study length 104 weeks): 47.2 mg/kg/day; TD50 (hamster, strain Syrian Golden, females, site: stomach, lesion: adenoma, dosed 52 weeks, study length 104 weeks): 1010 mg/kg/day; TD50 (hamster, strain Syrian Golden, females, site: stomach, lesion: adenoma, dosed 78 weeks, study length 104 weeks): 205 mg/kg/day; TD50 (hamster, strain Syrian Golden, males, site: acoustic duct, lesion: epithelioma, dosed 30 weeks, study length 101 weeks): 855 mg/kg/day; TD50 (hamster, strain Syrian Golden, males, site: all sites, lesion: leukemia, dosed 30 weeks, study length 101 weeks): 25800 mg/kg/day; TD50 (hamster, strain Syrian Golden, males, site: extrahepatic tissue, lesion: angioma, dosed 30 weeks, study length 101 weeks): 9800 mg/kg/day; TD50 (hamster, strain Syrian Golden, males, site: forestomach, lesion: epithelioma, dosed 30 weeks, study length 101 weeks): 55 mg/kg/day; TD50 (hamster, strain Syrian Golden, males, site: liver, lesion: angioma, dosed 30 weeks, study length 101 weeks): 2380 mg/kg/day; TD50 (hamster, strain Syrian Golden, males, site: liver, lesion: angiosarcoma, dosed 30 weeks, study length 101 weeks): 91800 mg/kg/day; TD50 (hamster, strain Syrian Golden, males, site: liver, lesion: hepatoma, dosed 30 weeks, study length 101 weeks): 1730 mg/kg/day; TD50 (hamster, strain Syrian Golden, males, site: skin, lesion: epithelioma, dosed 30 weeks, study length 101 weeks): 9350 mg/kg/day; TD50 (hamster, strain Syrian Golden, males, site: skin, lesion: melanoma, dosed 30 weeks, study length 101 weeks): 7630 mg/kg/day; TD50 (mouse, strain Charles River CD1, females, site: liver, lesion: hemangiosarcoma, dosed 26 weeks, study length 58 weeks): 91.9 mg/kg/day; TD50 (mouse, strain Charles River CD1, females, site: lung, lesion: alveolar/bronchiolar tumor, dosed 26 weeks, study length 58 weeks): 142 mg/kg/day; TD50 (mouse, strain Charles River CD1, females, site: mammary gland, lesion: malignant tumor, dosed 26 weeks, study length 58 weeks): 249 mg/kg/day; TD50 (mouse, strain Charles River CD1, males, site: liver, lesion: hemangiosarcoma, dosed 26 weeks, study length 78 weeks): 32 mg/kg/day; TD50 (mouse, strain Charles River CD1, males, site: lung, lesion: alveolar/bronchiolar tumor, dosed 26 weeks, study length 78 weeks): 88.7 mg/kg/day; TD50 (mouse, strain Swiss, females, site: all sites, lesion: hemangiosarcoma, dosed 26 weeks, study length 104 weeks): 12.5 mg/kg/day; TD50 (mouse, strain Swiss, females, site: all sites, lesion: hemangiosarcoma, dosed 52 weeks, study length 104 weeks): 13.8 mg/kg/day; TD50 (mouse, strain Swiss, females, site: all sites, lesion: hemangiosarcoma, dosed 78 weeks, study length 104 weeks): 36.1 mg/kg/day; TD50 (mouse, strain Swiss, females, site: any site (literature study), lesion: several types, types named in the paper, dosed 30 weeks, study length 77 weeks): 600 mg/kg/day; TD50 (mouse, strain Swiss, females, site: extrahepatic tissue, lesion: angioma, dosed 30 weeks, study length 77 weeks): 70900 mg/kg/day; TD50 (mouse, strain Swiss, females, site: extrahepatic tissue, lesion: angiosarcoma, dosed 30 weeks, study length 77 weeks): 736 mg/kg/day; TD50 (mouse, strain Swiss, females, site: forestomach, lesion: epithelioma, dosed 30 weeks, study length 77 weeks): 9820 mg/kg/day; TD50 (mouse, strain Swiss, females, site: liver, lesion: angioma, dosed 30 weeks, study length 77 weeks): 196 mg/kg/day; TD50 (mouse, strain Swiss, females, site: liver, lesion: angiosarcoma, dosed 30 weeks, study length 77 weeks): 98.8 mg/kg/day; TD50 (mouse, strain Swiss, females, site: liver, lesion: hepatoma, dosed 30 weeks, study length 77 weeks): 12200 mg/kg/day; TD50 (mouse, strain Swiss, females, site: lung, lesion: adenoma, dosed 30 weeks, study length 77 weeks): 402 mg/kg/day; TD50 (mouse, strain Swiss, females, site: lung, lesion: carcinoma, dosed 26 weeks, study length 104 weeks): 36.6 mg/kg/day; TD50 (mouse, strain Swiss, females, site: lung, lesion: carcinoma, dosed 52 weeks, study length 104 weeks): 55.5 mg/kg/day; TD50 (mouse, strain Swiss, females, site: lung, lesion: carcinoma, dosed 78 weeks, study length 104 weeks): 143 mg/kg/day; TD50 (mouse, strain Swiss, females, site: mammary gland, lesion: carcinoma, dosed 26 weeks, study length 104 weeks): 10.6 mg/kg/day; TD50 (mouse, strain Swiss, females, site: mammary gland, lesion: carcinoma, dosed 30 weeks, study length 77 weeks): 3750 mg/kg/day; TD50 (mouse, strain Swiss, females, site: mammary gland, lesion: carcinoma, dosed 52 weeks, study length 104 weeks): 22.9 mg/kg/day; TD50 (mouse, strain Swiss, females, site: mammary gland, lesion: carcinoma, dosed 78 weeks, study length 104 weeks): 32.2 mg/kg/day; TD50 (mouse, strain Swiss, females, site: skin, lesion: epithelioma, dosed 30 weeks, study length 77 weeks): 25100 mg/kg/day; TD50 (mouse, strain Swiss, males, site: any site (literature study), lesion: several types, types named in the paper, dosed 30 weeks, study length 77 weeks): 26.1 mg/kg/day; TD50 (mouse, strain Swiss, males, site: extrahepatic tissue, lesion: angioma, dosed 30 weeks, study length 77 weeks): 12300 mg/kg/day; TD50 (mouse, strain Swiss, males, site: extrahepatic tissue, lesion: angiosarcoma, dosed 30 weeks, study length 77 weeks): 8030 mg/kg/day; TD50 (mouse, strain Swiss, males, site: forestomach, lesion: epithelioma, dosed 30 weeks, study length 77 weeks): 5190 mg/kg/day; TD50 (mouse, strain Swiss, males, site: liver, lesion: angioma, dosed 30 weeks, study length 77 weeks): 1080 mg/kg/day; TD50 (mouse, strain Swiss, males, site: liver, lesion: angiosarcoma, dosed 30 weeks, study length 77 weeks): 70.8 mg/kg/day; TD50 (mouse, strain Swiss, males, site: liver, lesion: hepatoma, dosed 30 weeks, study length 77 weeks): 25200 mg/kg/day; TD50 (mouse, strain Swiss, males, site: lung, lesion: adenoma, dosed 30 weeks, study length 77 weeks): 14 mg/kg/day; TD50 (mouse, strain Swiss, males, site: skin, lesion: epithelioma, dosed 30 weeks, study length 77 weeks): 2690 mg/kg/day
